Measurements published in patent US8486897B2, “C-aryl glycoside compounds for the treatment of diabetes and obesity” (TFCHEM, priority 2008, dated 2013).

Key:
[1] = target: T1, Human SGLT1 (Homo sapiens, UniProt P13866); experiment: Cell-based assay for inhibition of uptake of 14C-methyl-α-D-glucopyranoside (14C-AMG) in CHO-K1 cells stably expressing human SGLT1; details: compound at 100 μM, 14C-AMG uptake, 1 hour at 37° C.
T1 construct: pCMV6 vector containing the full length human SGLT1 gene
T1 sequence (P13866 1-664): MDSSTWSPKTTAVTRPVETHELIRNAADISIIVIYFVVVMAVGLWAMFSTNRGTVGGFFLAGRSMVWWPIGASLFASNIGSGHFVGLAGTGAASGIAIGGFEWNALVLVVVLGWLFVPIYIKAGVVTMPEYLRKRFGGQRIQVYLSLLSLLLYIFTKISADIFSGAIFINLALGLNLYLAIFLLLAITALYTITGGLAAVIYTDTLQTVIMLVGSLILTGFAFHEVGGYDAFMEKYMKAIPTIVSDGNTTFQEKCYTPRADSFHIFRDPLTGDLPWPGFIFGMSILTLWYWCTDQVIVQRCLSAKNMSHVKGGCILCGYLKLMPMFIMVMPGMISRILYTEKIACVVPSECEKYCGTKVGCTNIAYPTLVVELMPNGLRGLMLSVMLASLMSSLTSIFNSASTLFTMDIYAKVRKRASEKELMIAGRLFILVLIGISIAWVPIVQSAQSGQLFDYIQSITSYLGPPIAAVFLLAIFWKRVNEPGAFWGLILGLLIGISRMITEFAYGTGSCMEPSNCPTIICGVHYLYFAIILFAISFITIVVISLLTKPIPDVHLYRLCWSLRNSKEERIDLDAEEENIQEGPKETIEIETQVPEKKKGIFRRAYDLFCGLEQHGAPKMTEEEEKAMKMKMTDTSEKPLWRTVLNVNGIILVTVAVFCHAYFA
Excerpt: (§1) 1. Preparation of Human SGLT1 and Human SGLT2 Expression Vectors:
• Human SGLT1 (Genbank M24847) cDNA was cloned from a pCMV6 vector containing the full length human SGLT1 gene (Origene NM 000343, Cat. #: RC221312) and Human SGLT2 (Genbank M95549) cDNA was cloned from a pCMV6 vector containing the full length human SGLT2 gene (Origene NM_003041, Cat. #: RC224822). The full cDNAs were subcloned independently into mammalian cell expression plasmid pSPI1 and sequenced to verify the integrity of the construct. 2. Preparation of CHO-K1 Cells Stably Expressing Human SGLT1 and Human SGLT2: • Transfection of CHO-K^1 cells was performed using 2.5 ug of pSPI1-SGLT1 or pSPI1-SGLT2 plasmid with about 6 ul of Lipofectamin 2000 (Invitrogen, Cat. #: 11668-019) in about 1.5×10^5 CHO-K1 cells using 12-well cell culture plate (Becton Dickinson, Cat. #: 353003) in the presence of DMEM medium (Dulbecco's Modified Eagle Medium) (Gibco, Cat. #: 11885-092) containing 10% FBS (Sigma, Cat. #: F1051-500mL). […] Sodium-dependent D-glucose transport was determined by measuring the uptake of 14C-methyl-α-D-glucopyranoside (14C-AMG) with a specific activity of 250-350mCi (9.25-13.0 GBq)/mmol (PerkinElmer, Cat. #: NEC 659250UC). […] Scintillation cocktail (1004) was added and the 14C-AMG radioisotope counted in a MicroBeta Trilux (PerkinElmer).

[2] = target: T2, Human SGLT2 (Homo sapiens, UniProt P31639); experiment: Cell-based assay for inhibition of uptake of 14C-methyl-α-D-glucopyranoside (14C-AMG) in CHO-K1 cells stably expressing human SGLT2; details: 14C-AMG uptake, 1 hour at 37° C.; for inhibition at 10 µM: compound at 10 μM; for inhibition at 100 µM: compound at 100 μM
T2 construct: pCMV6 vector containing the full length human SGLT2 gene
T2 sequence (P31639 1-672): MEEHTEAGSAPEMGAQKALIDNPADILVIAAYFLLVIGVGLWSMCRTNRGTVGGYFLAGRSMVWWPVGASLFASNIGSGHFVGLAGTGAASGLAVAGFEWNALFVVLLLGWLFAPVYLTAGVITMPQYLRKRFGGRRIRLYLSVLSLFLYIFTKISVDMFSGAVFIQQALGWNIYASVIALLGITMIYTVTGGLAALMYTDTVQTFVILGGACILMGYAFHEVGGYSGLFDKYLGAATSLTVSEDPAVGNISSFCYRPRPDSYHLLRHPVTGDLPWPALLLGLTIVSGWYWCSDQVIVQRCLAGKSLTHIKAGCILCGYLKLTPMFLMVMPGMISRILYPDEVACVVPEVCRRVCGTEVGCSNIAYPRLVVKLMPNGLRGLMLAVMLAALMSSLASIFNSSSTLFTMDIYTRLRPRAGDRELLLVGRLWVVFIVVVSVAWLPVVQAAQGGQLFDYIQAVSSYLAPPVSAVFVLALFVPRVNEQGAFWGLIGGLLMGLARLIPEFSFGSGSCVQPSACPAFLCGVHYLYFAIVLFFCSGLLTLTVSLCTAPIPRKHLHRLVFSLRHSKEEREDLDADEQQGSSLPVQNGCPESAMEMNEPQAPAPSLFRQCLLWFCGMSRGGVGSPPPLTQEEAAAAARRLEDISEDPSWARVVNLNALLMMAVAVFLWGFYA
Excerpt: The compounds of the invention have been tested for their ability to inhibit Human Sodium Glucose Co-Transporter 2 (Human SGLT2) according to the following protocol:
as §1
• Human SGLT1 (Genbank M24847) cDNA was cloned from a pCMV6 vector containing the full length human SGLT1 gene (Origene NM 000343, Cat. #: RC221312) and Human SGLT2 (Genbank M95549) cDNA was cloned from a pCMV6 vector containing the full length human SGLT2 gene (Origene NM_003041, Cat. #: RC224822). The full cDNAs were subcloned independently into mammalian cell expression plasmid pSPI1 and sequenced to verify the integrity of the construct. 2. Preparation of CHO-K1 Cells Stably Expressing Human SGLT1 and Human SGLT2: • Transfection of CHO-K^1 cells was performed using 2.5 ug of pSPI1-SGLT1 or pSPI1-SGLT2 plasmid with about 6 ul of Lipofectamin 2000 (Invitrogen, Cat. #: 11668-019) in about 1.5×10^5 CHO-K1 cells using 12-well cell culture plate (Becton Dickinson, Cat. #: 353003) in the presence of DMEM medium (Dulbecco's Modified Eagle Medium) (Gibco, Cat. #: 11885-092) containing 10% FBS (Sigma, Cat. #: F1051-500mL). Transfectants were then selected in the presence of the antibiotic G418 (GIBCO, Cat. #: 11811-031) at final concentration of 750 ug/ml. Individual clones for both SGLT1 and SGLT2 were then characterized using the functional cell-based assay described below. 3. Cell-Based Assay for Inhibition of Uptake of methyl-α-D-glucopyranoside by Human SGLT1 and Human SGLT2: • Selected cell lines stably expressing human SGLT1 or human SGLT2 were then used for functional analysis of sodium dependent glucose uptake. Sodium-dependent D-glucose transport was determined by measuring the uptake of 14C-methyl-α-D-glucopyranoside (14C-AMG) with a specific activity of 250-350mCi (9.25-13.0 GBq)/mmol (PerkinElmer, Cat. #: NEC 659250UC). The assay buffer used to assess sodium-dependent D-glucose transport was Krebs-Ringer-Henseleit (KRH) solution containing 4.7 mM KCl, 1.2 mM MgCl2, 2.2 mM CaCl2, 10 mM Hepes pH 7.4 with Tris (Sigma). For sodium (Na^+) conditions the Assay Buffer containing 120 mM NaCl (Na^+) was used to assess sodium-dependent D-glucose transport (KRH-Na^+). For sodium free conditions, KRH solution containing 120 mM N-methyl-glucamine (NMG) instead of NaCl (Na^+) was used to assess sodium-independent D-glucose transport (KRH-NMG). All buffer chemicals were purchased from Sigma. • In brief, the cells were plated at a density of 40,000 cells per well in a 96-well plate in DMEM media and allowed to grow for 24 hours. Cells were subsequently washed twice (2×100 μL) with KRH buffer cells containing NMG. […] Scintillation cocktail (1004) was added and the 14C-AMG radioisotope counted in a MicroBeta Trilux (PerkinElmer).

Row | inhibition at 100 µM [1] | inhibition at 10 µM [2] | inhibition at 100 µM [2] | Structure (SMILES)
1 | 46% | 30% | 79% | OC[C@H]1O[C@@H](C(F)(F)c2ccccc2)[C@H](O)[C@@H](O)[C@@H]1O [Compound 100]
2 | 48% | 40% | 56% | CCc1ccc(Cc2ccccc2C(F)(F)[C@@H]2O[C@H](CO)[C@@H](O)[C@H](O)[C@H]2O)cc1 [Compound 104]
